In paper PMC10560226, “Triepoxide formation by a flavin-dependent monooxygenase in monensin biosynthesis” (Nature Communications, 2023):
Values belong to the molecule of their own block, whether it stands above or below them.

What was measured:
MonCI [1] = target: T1, MonCI (Streptomyces virginiae, UniProt Q846W9); test: X-ray crystal structure, […] Å; format: binding; conditions: noncovalently bound, co-purified; isoalloxazine ring in "in" conformation; pH 6.5-6.8 crystals
T1 construct: gene monC1; N-terminal 6xHis-tag, pCold vector, E. coli BL21-AI; model covers residues 4-480 (chain A), last residue 496
T1 sequence (Q846W9 1-496): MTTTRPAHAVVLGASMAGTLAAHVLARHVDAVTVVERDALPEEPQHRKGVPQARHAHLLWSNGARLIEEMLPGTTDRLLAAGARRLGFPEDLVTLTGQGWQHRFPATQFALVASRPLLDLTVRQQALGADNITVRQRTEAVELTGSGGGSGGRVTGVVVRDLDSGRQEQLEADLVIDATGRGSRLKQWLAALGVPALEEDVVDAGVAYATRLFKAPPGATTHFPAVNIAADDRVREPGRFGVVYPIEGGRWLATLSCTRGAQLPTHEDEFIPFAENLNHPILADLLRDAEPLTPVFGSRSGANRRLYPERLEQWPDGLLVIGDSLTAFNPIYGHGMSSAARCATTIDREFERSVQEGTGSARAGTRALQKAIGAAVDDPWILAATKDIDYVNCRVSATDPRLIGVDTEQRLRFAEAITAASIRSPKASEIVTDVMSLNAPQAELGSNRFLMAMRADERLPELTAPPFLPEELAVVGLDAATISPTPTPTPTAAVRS

MonCI [2] = target: T1, MonCI; test: LC-MS of epoxide products; format: biochemical; conditions: 160 µM FHB, 15 µM MonCI, 80 µM FAD, Fre, NADH or NADH regeneration (glucose dehydrogenase), 50 mM Tris pH 8.0, 300 mM NaCl, 30 °C, 6 h
MonCI [3] = target: T1, MonCI; test: HPLC of epoxide product; format: biochemical; conditions: electron donor, 4 mM; FHB 160 µM, Tris pH 8.0, 30 °C, 6 h
[4] = target: MonCI (Streptomyces cinnamonensis); test: ITC; MicroCal ITC200, 25 °C, 100 mM phosphate pH 8.0; MonCI in the cell (60 μM with wild-type MonACPX 1.2 mM in the syringe; 100 μM with control ACP 1.0 mM in the syringe); 20 injections; one site model; performed twice

Molecule: Cc1cc2nc3c(=O)[nH]c(=O)nc-3n(C[C@H](O)[C@H](O)[C@H](O)COP(=O)(O)OP(=O)(O)OC[C@H]3O[C@@H](n4cnc5c(N)ncnc54)[C@H](O)[C@@H]3O)c2cc1C [FAD]
X-ray crystal structure, 1.9 Å (MonCI [1]): One FAD coenzyme and one chloride ion were found in each chain

Molecule: CC(C)=CCCC(C)=CCCC(C)=CCOC(=O)c1ccc(O)cc1 [FHB, farnesyl 4-hydroxybenzoate]
LC-MS of epoxide products (MonCI [2]): MonCI can perform multiple epoxidations on the same substrate molecule

Molecule: NC(=O)C1=CN([C@@H]2O[C@H](COP(=O)(O)OP(=O)(O)OC[C@H]3O[C@@H](n4cnc5c(N)ncnc54)[C@H](O)[C@@H]3O)[C@@H](O)[C@H]2O)C=CC1 [NADH]
HPLC of epoxide product (MonCI [3]): MonCI has similar preference for NADH and NADPH

Kd [4]: 49.8 µM
Molecule: apo-DEBS ACP2 (domain or fragment)

Kd [4]: 10.7 µM
Molecule: wild-type apo-MonACPX (natural protein)
